Results taken from patent US20260184662A1, “COMPOSITE OF ACID AND SALT, AND PREPARATION METHOD THEREFOR” (NANJING NUTRABUILDING BIO-TECH CO., LTD., priority 2022, published 2026).

Experiment: Determination of moisture contents with KF moisture meter at different time points
Format: physicochemical
Settings: temperature 23° C., humidity 92.5%
Excerpt: (§1) For R-3-hydroxybutyric acid, potassium R-3-hydroxybutyrate, mixture of R-3-hydroxybutyric acid and potassium R-3-hydroxybutyrate, and R-3-hydroxybutyric acid·potassium R-3-hydroxybutyrate complex of Example 1, under a certain condition, KF moisture meter was used to determine the moisture contents at different time points.
as §1, with “3-hydroxybutyric” for “R-3-hydroxybutyric”, “3-hydroxybutyrate,” for “R-3-hydroxybutyrate,”, “3-hydroxybutyrate” for “R-3-hydroxybutyrate”, “7,” for “1,”
as §1, with “S-3-hydroxybutyric” for “R-3-hydroxybutyric”, “S-3-hydroxybutyrate,” for “R-3-hydroxybutyrate,”, “S-3-hydroxybutyrate” for “R-3-hydroxybutyrate”, “13,” for “1,”
as §1, with “calcium” for “potassium”, “acid·calcium” for “acid·potassium”, “19,” for “1,”
(§2) For 3-hydroxybutyric acid, calcium 3-hydroxybutyrate, mixture of 3-hydroxybutyric acid and calcium 3-hydroxybutyrate, and 3-hydroxybutyric acid·calcium 3-hydroxybutyrate complex of Example 25, under a certain condition, KF moisture meter was used to determine the moisture contents at different time points.
as §2, with “S-3-hydroxybutyric” for “3-hydroxybutyric”, “S-3-hydroxybutyrate,” for “3-hydroxybutyrate,”, “S-3-hydroxybutyrate” for “3-hydroxybutyrate”, “31,” for “25,”
as §1, with “magnesium” for “potassium”, “acid·magnesium” for “acid·potassium”, “37,” for “1,”
as §2, with “magnesium” for “calcium”, “acid·magnesium 3-hydroxy butyrate” for “acid·calcium 3-hydroxybutyrate”, “43,” for “25,”
For S-3-hydroxybutyric acid, magnesium S-3-hydroxybutyrate, mixture of S-3-hydroxybutyric acid and magnesium S-3-hydroxybutyrate, and S-3-hydroxybutyric acid·magnesium S-3-hydroxybutyrate complex of Example 49, under a certain condition, KF moisture meter was used to determine the moisture contents at different time points.
(§3) For R-3-hydroxypentanoic acid, sodium R-3-hydroxypentanoate, mixture of R-3-hydroxypentanoic acid and sodium R-3-hydroxypentanoate, and R-3-hydroxypentanoic acid·sodium R-3-hydroxypentanoate complex of Example 55, under a certain condition, KF moisture meter was used to determine the moisture contents at different time points.
as §3, with “3-hydroxypentanoic” for “R-3-hydroxypentanoic”, “3-hydroxypentanoate,” for “R-3-hydroxypentanoate,”, “3-hydroxypentanoate” for “R-3-hydroxypentanoate”, “61,” for “55,”
as §3, with “S-3-hydroxypentanoic” for “R-3-hydroxypentanoic”, “S-3-hydroxypentanoate,” for “R-3-hydroxypentanoate,”, “S-3-hydroxypentanoate” for “R-3-hydroxypentanoate”, “67,” for “55,”

Structure (SMILES)	moisture content (%) (30 min)	moisture content (%) (1 h)	moisture content (%) (2 h)	moisture content (%) (4 h)	moisture content (%) (6 h)	moisture content (%) (7 h)	moisture content (%) (11 h)	moisture content (%) (22 h)
CC(O)CC(=O)O (centres unmarked) [3-hydroxybutyric acid]	1.32	2.37	4.15	6.59	9.68	10.71	17.33	33.51
CCC(O)CC(=O)O (centres unmarked) [3-hydroxypentanoic acid]	1.10	1.98	3.46	5.49	8.07	8.93	14.44	27.93
C[C@H](O)CC(=O)[O-].C[C@H](O)CC(=O)[O-].[Ca+2] [Calcium S-3-hydroxybutyrate, calcium S-3-hydroxybutyrate]	0.88	1.92	2.25	4.18	5.24	6.25	10.34	17.55
C[C@H](O)CC(=O)[O-].C[C@H](O)CC(=O)[O-].[Mg+2] [Magnesium S-3-hydroxybutyrate, magnesium S-3-hydroxybutyrate]	0.88	1.28	2.43	4.22	6.37	8.24	12.35	18.54
CC(O)CC(=O)[O-].[K+] (centres unmarked) [Potassium 3-hydroxybutyrate, potassium 3-hydroxybutyrate]	1.14	1.93	3.22	4.98	7.77	8.34	16.82	32.86
C[C@@H](O)CC(=O)[O-].[K+] [Potassium R-3-hydroxybutyrate, potassium R-3-hydroxybutyrate]	1.04	1.91	3.19	4.93	7.65	8.24	16.72	32.68
C[C@H](O)CC(=O)[O-].[K+] [Potassium S-3-hydroxybutyrate, potassium S-3-hydroxybutyrate]	1.06	1.92	3.22	4.97	7.55	8.34	16.82	32.75
C[C@@H](O)CC(=O)O [R-3-hydroxybutyric acid]	1.13	2.25	3.96	6.46	9.52	10.56	17.22	33.34
CC[C@@H](O)CC(=O)O [R-3-hydroxypentanoic acid]	0.94	1.88	3.30	5.38	7.93	8.80	14.35	27.78
CC[C@H](O)CC(=O)O [S-3-hydroxypentanoic acid]	1.03	1.90	3.38	5.27	7.94	8.85	14.23	27.46
